These compounds were tested on endogenous cellular STAT1 (phosphorylated at Tyr701) in NCI-H1373 cells (assay: Phospho-STAT1 (Tyr701) LANCE Ultra TR-FRET Detection Assay). Conditions: Homo sapiens, NCI-H1373, 48 h, phospho-STAT1 (Tyr701) induction, read-out: NH1373 pSTAT1 EC50.
Format: cell-based

For `COc1cnc(-c2cc3ncn(CCC[C@@H]4C[C@@H](C)CN4c4cn[nH]c(=O)c4C(F)(F)F)c(=O)c3cc2F)nc1N` [Example 177, 7-(4-amino-5-methoxypyrimidin-2-yl)-6-fluoro-3-[3-[(2R,4R)-4-methyl-1-[6-oxo-5-(trifluoromethyl)-1H-pyridazin-4-yl]pyrrolidin-2-yl]propyl]quinazolin-4-one], which EC50 is on record?
The EC50 was 0.537 µM.

For `O=c1[nH]ncc(N2CC[C@@H]2CCCn2ccc3cc(-c4ncc(C(F)(F)F)cn4)c(F)cc3c2=O)c1C(F)(F)F` (single isomer, unassigned) [Example 148], which EC50 is on record?
Its EC50 is 0.399 µM.

`O=c1[nH]ncc(N2CCC2CCCn2ccc3cc(-c4ncc(C(F)(F)F)cn4)c(F)cc3c2=O)c1C(F)(F)F` (centres unmarked) [Example 72, 7-fluoro-2-[3-[1-[6-oxo-5-(trifluoromethyl)-1H-pyridazin-4-yl]azetidin-2-yl]propyl]-6-[5-(trifluoromethyl)pyrimidin-2-yl]isoquinolin-1-one] was tested. Which EC50 did it give?
The EC50 was 0.00585 µM.

For `N#C[C@@H](CCCn1ccc2cc(-c3ncc(C(F)(F)F)cn3)c(F)cc2c1=O)Nc1cn[nH]c(=O)c1C(F)(F)F` [Example 162, (2R)-5-[7-fluoro-1-oxo-6-[5-(trifluoromethyl)pyrimidin-2-yl]-2-isoquinolyl]-2-[[6-oxo-5-(trifluoromethyl)-1H-pyridazin-4-yl]amino]pentanenitrile], which EC50 is on record?
Its EC50 is 0.662 µM.

`O=c1[nH]ncc(N[C@H](CCCn2cnc3cc(-c4ncc(C(F)F)cn4)c(F)cc3c2=O)C2CC2)c1C(F)(F)F` [Example 468, 3-[(4R)-4-cyclopropyl-4-[[6-oxo-5-(trifluoromethyl)-1H-pyridazin-4-yl]amino]butyl]-7-[5-(difluoromethyl)pyrimidin-2-yl]-6-fluoro-quinazolin-4-one] was tested. Which EC50 did it give?
Its EC50 is 0.0425 µM.

How did the EC50 turn out when `[2H]C([2H])([2H])OC[C@@H](CCCn1cnc2cc(-c3ncc(C(F)(F)F)cn3)c(F)cc2c1=O)Nc1cn[nH]c(=O)c1C(F)(F)F` [Example 430, 6-fluoro-3-[(4R)-4-[[6-oxo-5-(trifluoromethyl)-1H-pyridazin-4-yl]amino]-5-(trideuteriomethoxy)pentyl]-7-[5-(trifluoromethyl)pyrimidin-2-yl]quinazolin-4-one] was run?
Its EC50 is 0.00263 µM.

Which EC50 does the source give for `O=c1[nH]ncc(N2CC(F)(F)C[C@H]2CCCn2ccc3cc(-c4ncc(C(F)(F)F)cn4)c(F)cc3c2=O)c1C(F)(F)F` [Example 139, 2-[3-[(2R)-4,4-difluoro-1-[6-oxo-5-(trifluoromethyl)-1H-pyridazin-4-yl]pyrrolidin-2-yl]propyl]-7-fluoro-6-[5-(trifluoromethyl)pyrimidin-2-yl]isoquinolin-1-one] here?
Its EC50 is 0.0648 µM.

For `O=c1[nH]ncc(N[C@H](CCCn2cnc3cc(-c4ncc(C(F)(F)F)cn4)c(F)cc3c2=O)COC(F)F)c1C(F)(F)F` [Example 382, (R)-3-(5-(difluoromethoxy)-4-((6-oxo-5-(trifluoromethyl)-1,6-dihydropyridazin-4-yl)amino)pentyl)-6-fluoro-7-(5-(trifluoromethyl)pyrimidin-2-yl)quinazolin-4(3H)-one], which EC50 is on record?
The EC50 was 0.00217 µM.

With `COC[C@@H](CCCn1ccc2cc(-c3ncc(C(F)(F)F)cn3)c(F)cc2c1=O)Nc1cn[nH]c(=O)c1C(F)(F)F` [Example 135, (R)-7-fluoro-2-(5-methoxy-4-((6-oxo-5-(trifluoromethyl)-1,6-dihydropyridazin-4-yl)amino)pentyl)-6-(5-(trifluoromethyl)pyrimidin-2-yl)isoquinolin-1(2H)-one] as the compound, how does the EC50 read?
Its EC50 is 0.0177 µM.

How did the EC50 turn out when `C[C@@H]1C[C@H](C)N1c1nc(-c2cc3ccn(CCC[C@H](C)Nc4cn[nH]c(=O)c4C(F)(F)F)c(=O)c3cc2F)ncc1C(F)(F)F` [Example 318, 6-(4-((2R,4S)-2,4-dimethylazetidin-1-yl)-5-(trifluoromethyl)pyrimidin-2-yl)-7-fluoro-2-((S)-4-((6-oxo-5-(trifluoromethyl)-1,6-dihydropyridazin-4-yl)amino)pentyl)isoquinolin-1(2H)-one] was run?
Its EC50 is 0.0286 µM.

With `C[C@@H](CCCn1ccc2cc(-c3nc(N)ncc3C(F)F)c(F)cc2c1=O)Nc1cn[nH]c(=O)c1C(F)(F)F` [Example 105, 6-[2-amino-5-(difluoromethyl)pyrimidin-4-yl]-7-fluoro-2-[(4S)-4-[[6-oxo-5-(trifluoromethyl)-1H-pyridazin-4-yl]amino]pentyl]isoquinolin-1-one] as the compound, how does the EC50 read?
The EC50 was 0.465 µM.

Which EC50 does the source give for `O=c1[nH]ncc(N[C@H](CCCn2ccc3cc(-c4ncc(C(F)(F)F)cn4)c(F)cc3c2=O)CC(F)(F)F)c1C(F)(F)F` [Example 453, (R)-7-fluoro-2-(6,6,6-trifluoro-4-((6-oxo-5-(trifluoromethyl)-1,6-dihydropyridazin-4-yl)amino)hexyl)-6-(5-(trifluoromethyl)pyrimidin-2-yl)isoquinolin-1(2H)-one] here?
Its EC50 is 0.215 µM.

How did the EC50 turn out when `C[C@H](Nc1cn[nH]c(=O)c1C(F)(F)F)/C(F)=C/Cn1ccc2cc(-c3ncc(C(F)(F)F)cn3)c(F)c(F)c2c1=O` [Example 132, (S,Z)-7,8-difluoro-2-(3-fluoro-4-((6-oxo-5-(trifluoromethyl)-1,6-dihydropyridazin-4-yl)amino)pent-2-en-1-yl)-6-(5-(trifluoromethyl)pyrimidin-2-yl)isoquinolin-1(2H)-one] was run?
The EC50 was 0.00347 µM.

Which EC50 does the source give for `C[C@@H](CC(=O)Cn1ccc2cc(-c3ncc(C(F)(F)F)cn3)c(F)cc2c1=O)Nc1cn[nH]c(=O)c1C(F)(F)F` [Example 90, 7-fluoro-2-[(4S)-2-oxo-4-[[6-oxo-5-(trifluoromethyl)-1H-pyridazin-4-yl]amino]pentyl]-6-[5-(trifluoromethyl)pyrimidin-2-yl]isoquinolin-1-one] here?
The EC50 was 0.052 µM.

Which EC50 does the source give for `C[C@@H](CCCn1ccc2cc(-c3ccc(C#N)c(C(F)(F)F)n3)c(F)cc2c1=O)Nc1cn[nH]c(=O)c1C(F)(F)F` [Example 295, (S)-6-(7-fluoro-1-oxo-2-(4-((6-oxo-5-(trifluoromethyl)-1,6-dihydropyridazin-4-yl)amino)pentyl)-1,2-dihydroisoquinolin-6-yl)-2-(trifluoromethyl)nicotinonitrile] here?
Its EC50 is 2.02 µM.

How did the EC50 turn out when `COc1cnc(-c2cc3ccn(CCC[C@H](C)Nc4cn[nH]c(=O)c4C(F)(F)F)c(=O)c3cc2F)nc1N1CC(O)(C(F)(F)F)C1` [Example 286, (S)-7-fluoro-6-(4-(3-hydroxy-3-(trifluoromethyl)azetidin-1-yl)-5-methoxypyrimidin-2-yl)-2-(4-((6-oxo-5-(trifluoromethyl)-1,6-dihydropyridazin-4-yl)amino)pentyl)isoquinolin-1(2H)-one] was run?
The EC50 was 0.0619 µM.

`COc1cnc(-c2cc3ccn(CCC[C@H](C)Nc4cn[nH]c(=O)c4C(F)(F)F)c(=O)c3cc2F)nc1NC1CC1` [Example 216, (S)-6-(4-(cyclopropylamino)-5-methoxypyrimidin-2-yl)-7-fluoro-2-(4-((6-oxo-5-(trifluoromethyl)-1,6-dihydropyridazin-4-yl)amino)pentyl)isoquinolin-1(2H)-one] was tested. Which EC50 did it give?
Its EC50 is 0.0393 µM.

For `C[C@@H]1C[C@@H](CCCn2ccc3cc(-c4ncc(C(F)(F)F)cn4)c(F)cc3c2=O)N(c2cn[nH]c(=O)c2C(F)(F)F)C1` [Example 174, 7-fluoro-2-(3-((2R,4R)-4-methyl-1-(6-oxo-5-(trifluoromethyl)-1,6-dihydropyridazin-4-yl)pyrrolidin-2-yl)propyl)-6-(5-(trifluoromethyl)pyrimidin-2-yl)isoquinolin-1(2H)-one], which EC50 is on record?
The EC50 was 0.287 µM.

How did the EC50 turn out when `C[C@@H](CCCn1ccc2cc(-c3ncc([N+](=O)[O-])c(N)n3)c(F)cc2c1=O)Nc1cn[nH]c(=O)c1C(F)(F)F` [Example 111, 6-(4-amino-5-nitro-pyrimidin-2-yl)-7-fluoro-2-[(4S)-4-[[6-oxo-5-(trifluoromethyl)-1H-pyridazin-4-yl]amino]pentyl]isoquinolin-1-one] was run?
Its EC50 is 0.00667 µM.

For `C[C@@H](CCCn1ccc2cc(-c3ncc(C(F)F)c(N[C@@H]4C[C@@H]4F)n3)c(F)cc2c1=O)Nc1cn[nH]c(=O)c1C(F)(F)F` [Example 223, 6-(5-(difluoromethyl)-4-(((1R,2S)-2-fluorocyclopropyl)amino)pyrimidin-2-yl)-7-fluoro-2-((S)-4-((6-oxo-5-(trifluoromethyl)-1,6-dihydropyridazin-4-yl)amino)pentyl)isoquinolin-1(2H)-one], which EC50 is on record?
Its EC50 is 0.0333 µM.

How did the EC50 turn out when `Nc1nc(-c2cc3ccn(C[C@@H]4CCC[C@H](Nc5cn[nH]c(=O)c5C(F)(F)F)C4)c(=O)c3c(F)c2F)ncc1C(F)F` [Example 239] was run?
The EC50 was 0.00537 µM.

How did the EC50 turn out when `C[C@@H](CCCn1ccc2cc(-c3ncc(C(F)(F)F)c(N)n3)c(F)c(F)c2c1=O)Nc1cn[nH]c(=O)c1C(F)(F)F` [Example 81, (S)-6-(4-amino-5-(trifluoromethyl)pyrimidin-2-yl)-7,8-difluoro-2-(4-((6-oxo-5-(trifluoromethyl)-1,6-dihydropyridazin-4-yl)amino)pentyl)isoquinolin-1(2H)-one] was run?
Its EC50 is 0.00426 µM.

Which EC50 does the source give for `C[C@@H](CCCn1ccc2cc(-c3ncc(C4(F)COC4)c(N)n3)c(F)cc2c1=O)Nc1cn[nH]c(=O)c1C(F)(F)F` [Example 344, (S)-6-(4-amino-5-(3-fluorooxetan-3-yl)pyrimidin-2-yl)-7-fluoro-2-(4-((6-oxo-5-(trifluoromethyl)-1,6-dihydropyridazin-4-yl)amino)pentyl)isoquinolin-1(2H)-one] here?
Its EC50 is 0.0282 µM.

For `Nc1nc(-c2cc3ccn(CCC[C@H](COC(F)F)Nc4cn[nH]c(=O)c4C(F)(F)F)c(=O)c3cc2F)n[nH]1` [Example 421, (R)-6-(5-amino-1H-1,2,4-triazol-3-yl)-2-(5-(difluoromethoxy)-4-((6-oxo-5-(trifluoromethyl)-1,6-dihydropyridazin-4-yl)amino)pentyl)-7-fluoroisoquinolin-1(2H)-one], which EC50 is on record?
The EC50 was 0.11 µM.

`Cc1nc(-c2cc3ccn(CCC[C@H](C)Nc4cn[nH]c(=O)c4C(F)(F)F)c(=O)c3cc2F)nc(N)c1C(F)(F)F` [Example 327, (S)-6-(4-amino-6-methyl-5-(trifluoromethyl)pyrimidin-2-yl)-7-fluoro-2-(4-((6-oxo-5-(trifluoromethyl)-1,6-dihydropyridazin-4-yl)amino)pentyl)isoquinolin-1(2H)-one] was tested. Which EC50 did it give?
Its EC50 is 0.00305 µM.

Which EC50 does the source give for `Cc1cc(N)nc(-c2cc3ccn(CCC[C@H](C)Nc4cn[nH]c(=O)c4C(F)(F)F)c(=O)c3cc2F)n1` [Example 315, (S)-6-(4-amino-6-methylpyrimidin-2-yl)-7-fluoro-2-(4-((6-oxo-5-(trifluoromethyl)-1,6-dihydropyridazin-4-yl)amino)pentyl)isoquinolin-1(2H)-one] here?
The EC50 was 0.561 µM.

Source: patent US12459922B2 (Gilead Sciences, Inc., priority 2022, dated 2025)
